Experimental data reported in patent US20240018121A1, “NOVEL HETEROAROMATIC COMPOUNDS EXHIBITING ANTIFUNGAL ACTIVITY AND THEIR METHOD OF USE” (FOX CHASE CHEMCIAL DIVERSITY CENTER, INC., priority 2020, published 2024).
Values after ≈ are worked out from the molar mass of the structure shown. Structures can show the parent of a compound that is named as a salt. Where two headings read alike, the source gives them in different places.

Key:
Assay type in all cases: cell-based
[1] = tested on: Aspergillus flavus AFL1 (ATCC MYA-3631); assay: Fungal MIC Protocol, Aspergillus flavus; details: Aspergillus flavus, read-out: MIC Aspergillus flavus 3631
Protocol: (§1) Fungal MIC Protocol: RPMI/MOPS media (Roswell Park Memorial Institute/3-morpholinopropane-1-sulfonic acid media) is prepared by dissolving 8.4 grams RPMI […] (Sigma cat #R1383), 34.52 grams MOPS buffer (Sigma cat #M3.183) and 2 […] glucose in 900 mL deionized water. The pH is adjusted to 7.0 with NaOH and filter sterilized. 0.1 mL, of a stock spore suspension (or loop from frozen stock) is inoculated to a 75 mL tissue culture flask (Falcon cat #353136) containing 50 mL of Potato Dextrose Agar (PDA, 24 grams PD broth (Fisher cat #DF 0549179), 20 grams agar (Fisher cat #BP 1423500) per liter water). Aspergillus and Fusarium strains are grown at 35° C. and Mucor strains are grown at room temperature for 3-5 days. Spores are harvested by flooding the flask with 5 mL phosphate buffered saline (PBS) pH 7.4+0.1% Tween-20 and several glass beads (Fisher cat #S800243) are added to aid in agitation. The supernatant is removed and the OD530 of a 1:100 dilution is measured. Spores are diluted in RPMI/MOPS to a final OD530 of 0.002 for Aspergillus and an OD530 of 0.005 for Fusarium and Mucor. The final concentration of spores is approximately 2×10^4 cfu/mL. Test compound(s) are diluted to 200 ug/mL in RPMI/MOPS ([…]). Ten (10) serial dilutions are prepared with RPMI/MOPS in a 96-well round bottom plate (Fisher cat #353136). For Mucor strains a sterile flat-bottom 96-well plate is used. 50 μl of compound dilutions in duplicate are added to a sterile 96-well round bottom plate. 50 ul of diluted spores are added to the compound-containing plates. Control wells include 1) compound but no cells and 2) spores but no compound. Mix the plates gently by hand, place in ziplock bags and
(§2) incubate at 35° C. for 48 hours. […]

[2] = tested on: Aspergillus fumigatus T33439 (ATCC MYA-3626); assay: Fungal MIC Protocol, Aspergillus fumigatus; details: Aspergillus fumigatus, read-out: MIC Aspergillus fumigatus 3626
Protocol: as §1, §2

[3] = tested on: Fusarium falciforme FS1 (ATCC MYA-3636); assay: Fungal MIC Protocol, Fusarium falciforme; details: Fusarium falciforme, read-out: MIC Fusarium falciforme 3636
Protocol: as §1, §2

[4] = tested on: Fusarium solani (ATCC 58877); assay: Fungal MIC Protocol, Fusarium solani; details: Fusarium solani, read-out: MIC Fusarium solani 58877
Protocol: as §1, §2

[5] = tested on: Mucor circinelloides 1463(62) (ATCC 26759); assay: Fungal MIC Protocol, Mucor circinelloides (MIC-50); details: Mucor circinelloides, read-out: MIC-50 Mucorales circinelloides 26579
Protocol: as §1
(§3) incubate at 35° C. for 48 hours. Score the MIC visually (lowest concentration of compound showing >50% growth inhibition) using an inverted mirror.

[6] = tested on: Mucor ramosissimus 057718 (ATCC 90286); assay: Fungal MIC Protocol, Mucor ramosissimus (MIC-50); details: Mucor ramosissimus, read-out: MIC-50 Mucorales ramosissimus 90286
Protocol: as §1, §3

Candida albicans GDH2346 = assay: Candida Minimal Inhibitory Concentration (MIC); details: Candida albicans, read-out: MIC-50 Candida albicans GDH2346
Protocol: Candida Minimal Inhibitory Concentration (MIC): RPMI/MOPS media is prepared by dissolving 8.4 g RPMI 1640, 34.52 g MOPS buffer and 2 g glucose in 900 mL water. The pH is adjusted to 7.0 with NaOH. The total volume is brought to 1 L and the resulting solution is filter sterilized. The Candida stock is streaked on a Yeast extract Peptone Dextrose (YPD) agar plate and grown at 35° C. for isolation of single colonies. Compounds of the disclosure are diluted to 200 μg/mL in RPMI/MOPS (4.8 ul of 10 mg/mL DMSO stock in 240 ul media). Ten (10) 1:2 serial dilutions are prepared in RPMI/MOPS in a 96-well round bottom plate. Fifty (50) μl of compound dilutions are transferred in duplicate to a sterile tissue culture-treated 96-well flat-bottom, black-sided polypropylene plate. A single colony of Candida from the YPD plate is re-suspended in 5 mL phosphate buffered saline (BS) and optical density (OD) at 600 nm is measured. The suspension is adjusted to OD=1.0 and a 1:1000 dilution is prepared in RPMI/MOPS. Fifty (50) ul aliquots of the diluted yeast are added to the plates containing 50 μL of compound to all wells except 12E-H. Control wells include: 12 A-D cells, no compound and 12 E-H no cells, no compound. The plates are mixed gently by hand and placed in Ziplok bags in a 35° C. incubator. The OD600 is measured at 24 and 48 hours.

[7] = 100% growth inhibition at 48 hours
[8] = ATCC58877, 100% growth inhibition at 48 hours
[9] = ATCC26759, 50% growth inhibition at 48 hours
[10] = ATCC90286, 50% growth inhibition at 48 hours
[11] = GDH2346, 50% growth inhibition at 48 hours

Row | Compound | MIC [1, 7] | MIC [2, 7] | MIC [3, 7] | MIC [4, 8] | MIC50 [5, 9] | MIC50 [6, 10] | MIC50 (Candida albicans GDH2346; [11]) | MIC ([1]; 48 h) | MIC ([2]; 48 h) | MIC ([3]; 48 h) | MIC ([4]; ATCC58877, 48 h) | MIC50 ([5]; ATCC26759, 48 h) | MIC50 ([6]; ATCC90286, 48 h) | MIC50 (Candida albicans GDH2346; GDH2346, 48 h)
1 | CCn1c(-c2ccc(C3=CCN(C(=N)N)CC3)cc2)nnc1-c1ccc(C2=CCN(C(=N)N)CC2)cc1 [Example 2, 4,4′-(4,4′-(4-Ethyl-4H-1,2,4-triazole-3,5-diyl)bis(4,1-phenylene)) bis(5,6-dihydropyridine-1(2H)-carboximidamide)] | < 0.1 µg/mL | 0.2 µg/mL (≈ 0.404 µM) | < 0.1 µg/mL | < 0.1 µg/mL | > 100 µg/mL | > 100 µg/mL | < 0.024 µg/mL | – | – | – | – | – | – | –
2 | Cn1c(-c2ccc(C3=CCN(C(=N)N)C3)cc2)nnc1-c1ccc(C2=CCN(C(=N)N)C2)cc1 [Example 29] | 0.39 µg/mL (≈ 0.86 µM) | < 0.1 µg/mL | < 0.1 µg/mL | 0.39 µg/mL (≈ 0.86 µM) | 6.25 µg/mL (≈ 13.8 µM) | 6.25 µg/mL (≈ 13.8 µM) | 1.56 µg/mL (≈ 3.44 µM) | – | – | – | – | – | – | –
3 | Cc1cc(-n2cc(-c3ccc(C4=CCN(C(=N)N)CC4)cc3)nn2)ccc1C1=CCN(C(=N)N)CC1 [Example 35, 4-(4-(1-(4-(1-Carbamimidoyl-1,2,3,6-tetrahydropyridin-4-yl)-3-methylphenyl)-1H-1,2,3-triazol-4-yl)phenyl)-5,6-dihydropyridine-1(2H)-carboximidamide] | 0.39 µg/mL (≈ 0.81 µM) | 1.56 µg/mL (≈ 3.24 µM) | < 0.1 µg/mL | 1.56 µg/mL (≈ 3.24 µM) | 0.39 µg/mL (≈ 0.81 µM) | 25 µg/mL (≈ 51.9 µM) | 0.39 µg/mL (≈ 0.81 µM) | – | – | – | – | – | – | –
4 | CCOCCOCCn1c(-c2ccc(C3=CCN(C(=N)N)CC3)cc2F)nnc1-c1ccc(C2=CCN(C(=N)N)CC2)cc1F [Example 9, 4,4′-(4,4′-(4-(2-(2-Ethoxyethoxy)ethyl)-4H-1,2,4-triazole-3,5-diyl)bis(3-fluoro-4,1-phenylene))bis(5,6-dihydropyridine-1(2H)-carboximidamide)] | 0.39 µg/mL (≈ 0.629 µM) | 0.2 µg/mL (≈ 0.323 µM) | 0.2 µg/mL (≈ 0.323 µM) | 0.2 µg/mL (≈ 0.323 µM) | 3.13 µg/mL (≈ 5.05 µM) | 3.13 µg/mL (≈ 5.05 µM) | < 0.1 µg/mL | – | – | – | – | – | – | –
5 | CCCCCCCCn1c(-c2ccc(C3=CCN(C(=N)N)CC3)cc2F)nnc1-c1ccc(C2=CCN(C(=N)N)CC2)cc1F [Example 11, 4,4′-(4,4′-(4-Octyl-4H-1,2,4-triazole-3,5-diyl)bis(3-fluoro-4,1-phenylene))bis(5,6-dihydropyridine-1(2H)-carboximidamide)] | 0.78 µg/mL (≈ 1.27 µM) | 0.39 µg/mL (≈ 0.633 µM) | 0.2 µg/mL (≈ 0.325 µM) | 0.2 µg/mL (≈ 0.325 µM) | 1.56 µg/mL (≈ 2.53 µM) | 3.13 µg/mL (≈ 5.08 µM) | 1.56 µg/mL (≈ 2.53 µM) | – | – | – | – | – | – | –
6 | Cn1c(-c2cc(F)c(C3=CCN(C(=N)N)CC3)c(F)c2)nnc1-c1ccc(C2=CCN(C(=N)N)CC2)cc1F [Example 85, 4-(4-{5-[4-(1-carbamimidoyl-1,2,3,6-tetrahydropyridin-4-yl)-2-fluorophenyl]-4-methyl-4H-1,2,4-triazol-3-yl}-2,6-difluorophenyl)-1,2,3,6-tetrahydropyridine-1-carboximidamide trifluoroacetate] | – | – | – | – | – | – | – | 0.024 µg/mL | 0.024 µg/mL | < 0.012 µg/mL | < 0.012 µg/mL | 0.2 µg/mL | 0.78 µg/mL | 0.1 µg/mL
7 | Cc1cc(C2=CCN(C(=N)N)CC2)ccc1-n1cc(-c2ccc(C3=CCN(C(=N)N)CC3)cc2)nn1 [Example 34, 4-(4-(1-(4-(1-Carbamimidoyl-1,2,3,6-tetrahydropyridin-4-yl)-2-methylphenyl)-1H-1,2,3-triazol-4-yl)phenyl)-5,6-dihydropyridine-1(2-H)-carboximidamide] | 0.2 µg/mL (≈ 0.415 µM) | 0.2 µg/mL (≈ 0.415 µM) | < 0.1 µg/mL | 0.39 µg/mL (≈ 0.81 µM) | 0.39 µg/mL (≈ 0.81 µM) | 25 µg/mL (≈ 51.9 µM) | 0.16 µg/mL (≈ 0.332 µM) | – | – | – | – | – | – | –

Now from value to compound, other results behind:

Row | MIC [1, 7] | MIC [2, 7] | MIC [3, 7] | MIC [4, 8] | MIC50 [5, 9] | MIC50 [6, 10] | MIC50 (Candida albicans GDH2346; [11]) | Compound | MIC ([1]; 48 h) | MIC ([2]; 48 h) | MIC ([3]; 48 h) | MIC ([4]; ATCC58877, 48 h) | MIC50 ([5]; ATCC26759, 48 h) | MIC50 ([6]; ATCC90286, 48 h) | MIC50 (Candida albicans GDH2346; GDH2346, 48 h)
8 | 3.13 µg/mL (≈ 6.68 µM) | 3.13 µg/mL (≈ 6.68 µM) | 0.39 µg/mL (≈ 0.832 µM) | 6.25 µg/mL (≈ 13.3 µM) | 100 µg/mL (≈ 213 µM) | 100 µg/mL (≈ 213 µM) | 0.39 µg/mL (≈ 0.832 µM) | N=C(N)N1CC=C(c2ccc(-c3nnc(-c4ccc(C5=CCN(C(=N)N)CC5)cc4)o3)cc2)CC1 [Example 41, 4-(4-{5-[4-(1-Carbamimidoyl-1,2,3,6-tetrahydropyridin-4-yl)phenyl]-1,3,4-oxadiazol-2-yl}phenyl)-1,2,3,6-tetrahydropyridine-1-carboximidamide] | – | – | – | – | – | – | –
9 | 0.78 µg/mL (≈ 1.55 µM) | 3.13 µg/mL (≈ 6.2 µM) | < 0.1 µg/mL | 3.13 µg/mL (≈ 6.2 µM) | 1.56 µg/mL (≈ 3.09 µM) | 25 µg/mL (≈ 49.5 µM) | 1.56 µg/mL (≈ 3.09 µM) | N=C(N)N1CC=C(c2ccc(-c3nnc(-c4ccc(C5=CCN(C(=N)N)CC5)c(F)c4)o3)cc2F)CC1 [Example 49, 4,4′-(4,4′-(1,3,4-oxadiazole-2,5-diyl)bis(2-fluoro-4,1-phenylene)) bis(5,6-dihydropyridine-1(2H)-carboximidamide)] | – | – | – | – | – | – | –
10 | 0.39 µg/mL (≈ 0.811 µM) | 1.56 µg/mL (≈ 3.25 µM) | < 0.1 µg/mL | 0.78 µg/mL (≈ 1.62 µM) | 0.39 µg/mL (≈ 0.811 µM) | 3.13 µg/mL (≈ 6.51 µM) | 0.5 µg/mL (≈ 1.04 µM) | Cn1nc(-c2ccc(C3=CCN(C(=N)N)CC3)cc2)cc1-c1ccc(C2=CCN(C(=N)N)CC2)cc1 [Example 54, 4,4′-(4,4′-(1-Methyl-1H-pyrazole-3,5-diyl)bis(4,1-phenylene)) bis(5,6-dihydropyridine-1(2H)-carboximidamide)] | – | – | – | – | – | – | –
11 | 0.39 µg/mL (≈ 0.802 µM) | 0.78 µg/mL (≈ 1.6 µM) | < 0.1 µg/mL | 1.56 µg/mL (≈ 3.21 µM) | 50 µg/mL (≈ 103 µM) | 25 µg/mL (≈ 51.4 µM) | 0.78 µg/mL (≈ 1.6 µM) | N=C(N)N1CC=C(c2ccc(-c3nnc(-c4ccc(C5=CCN(C(=N)N)CC5)cc4F)o3)cc2)CC1 [Example 50, 4-(4-(5-(4-(1-Carbamimidoyl-1,2,3,6-tetrahydropyridin-4-yl)-2-fluorophenyl)-1,3,4-oxadiazol-2-yl)phenyl)-5,6-dihydropyridine-1(2H)-carboximidamide] | – | – | – | – | – | – | –
12 | 0.2 µg/mL (≈ 0.365 µM) | < 0.1 µg/mL | < 0.1 µg/mL | < 0.1 µg/mL | 0.39 µg/mL (≈ 0.712 µM) | 3.13 µg/mL (≈ 5.72 µM) | 0.2 µg/mL (≈ 0.365 µM) | N=C(N)N1CC=C(c2ccc(-c3nnc(-c4ccc(C5=CCN(C(=N)N)CC5)cc4F)n3CCO)c(F)c2)CC1 [Example 57, 4,4′-(4,4′-(4-(2-Hydroxyethyl)-4H-1,2,4-triazole-3,5-diyl)bis(3-fluoro-4,1-phenylene))bis(5,6-dihydropyridine-1(2H)-carboximidamide)] | – | – | – | – | – | – | –
